Assay results: US6602867B1, “Triazole compounds with dopamine-D3-receptor affinity” (Abbott Laboratories, priority 1999, dated 2003)
Counter-ions that a name gives are not always drawn.

Columns and labels:
[1] = target: T1, human D3-receptor (Homo sapiens, UniProt P35462); experiment: D3 binding test (125iodosulpiride, membranes of CCL 1,3 mouse fibroblasts); conditions: negative logarithm of the affinity constant for the D3 receptor; read-out: pKi (D3) (converted)
T1 construct: host or cells: CCL 1,3 mouse fibroblasts
T1 sequence (P35462 whole entry): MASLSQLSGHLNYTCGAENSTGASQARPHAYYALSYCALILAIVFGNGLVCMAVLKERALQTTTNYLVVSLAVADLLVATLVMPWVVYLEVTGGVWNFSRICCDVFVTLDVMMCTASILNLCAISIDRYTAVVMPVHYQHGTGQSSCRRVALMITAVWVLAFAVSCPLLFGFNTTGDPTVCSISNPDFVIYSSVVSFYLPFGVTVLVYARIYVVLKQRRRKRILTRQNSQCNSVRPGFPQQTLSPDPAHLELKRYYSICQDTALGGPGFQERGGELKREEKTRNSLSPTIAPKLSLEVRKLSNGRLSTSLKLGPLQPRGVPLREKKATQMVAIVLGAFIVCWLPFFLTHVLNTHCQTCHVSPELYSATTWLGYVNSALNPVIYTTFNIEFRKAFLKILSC
Method: Cloned human D3-receptor-expressing CCL 1,3 mouse fibroblasts, obtainable from Res. Biochemicals Internat. One Strathmore Rd., Natick, Mass. 01760-2418 USA, were used for the binding studies.
The D3-expressing cells were multiplied in RPMI-1640 containing 10% fetal calf serum (GIBCO No. 041-32400 N); 100 U of penicillin/ml and 0.2% streptomycin (GIBO BRL, Gaithersburg, Md., USA). After 48 h, the cells were washed with PBS and incubated for 5 min with 0.05% trypsin-containing PBS. After that, the solution was neutralized with medium and the cells were collected by centrifuging at 300 g. In order to lyse the cells, the pellet was washed briefly with lysis buffer (5 mM Tris-HCl, pH 7.4, containing 10% glycerol) and after that incubated, at 4° C. for 30 min, at a concentration of 10^7 cells/ml of lysis buffer. The cells were centrifuged at 200 g for 10 min and the pellet was stored in liquid nitrogen.
For the D3-receptor binding test, the membranes were suspended in incubation buffer (50 mM Tris-HCl, pH 7.4, containing 120 mM NaCl, 5 mM KCl, 2 mM CaCl2, 2 mM MgCl2, 10 μM quinolinol, 0.1% ascorbic acid and 0.1% BSA), at a concentration of approx. 10^6 cells/250 μl of test mixture, and incubated at 30° C. with 0.1 nM ^125iodosulpiride in the presence and absence of the test substance. The nonspecific binding was determined using 10^−6 M spiperone.
After 60 min, the free radioligand and the bound radioligand were separated by filtering through GF/B glass fiber filters (Whatman, England) on a Skatron cell harvester (Skatron, Lier, Norway), and the filters were washed with ice-cold Tris-HCl buffer, pH 7.4. The radioactivity which had collected on the filters was quantified using a Packard 2200 CA liquid scintillation counter.
The Ki values were determined by means of nonlinear regression analysis using the LIGAND program.

[2] = target: T2, human dopamine D2A receptors (Homo sapiens, UniProt P14416); experiment: D2 binding test (125I-spiperone, HEK-293 cells); conditions: selectivity versus D2 receptor, Ki(D2)/Ki(D3)
T2 construct: expressed in transfected cells; host or cells: HEK-293 cells
T2 sequence (P14416 whole entry): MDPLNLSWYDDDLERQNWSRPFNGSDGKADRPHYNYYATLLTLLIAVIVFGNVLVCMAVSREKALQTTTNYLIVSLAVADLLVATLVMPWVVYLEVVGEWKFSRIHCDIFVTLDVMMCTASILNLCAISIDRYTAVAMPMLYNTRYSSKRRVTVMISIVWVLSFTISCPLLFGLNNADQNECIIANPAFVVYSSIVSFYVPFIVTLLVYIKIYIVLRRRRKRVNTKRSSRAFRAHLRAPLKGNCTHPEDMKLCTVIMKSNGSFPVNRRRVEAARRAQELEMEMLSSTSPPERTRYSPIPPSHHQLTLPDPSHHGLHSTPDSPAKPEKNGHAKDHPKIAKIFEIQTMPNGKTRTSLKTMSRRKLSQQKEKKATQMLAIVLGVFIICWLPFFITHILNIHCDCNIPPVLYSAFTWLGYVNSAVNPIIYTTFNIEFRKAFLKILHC
Method: All the media contained 100 units of penicillin […] and 100 μg/ml of streptomycin/ml. The cells were maintained at 37° C. in a moist atmosphere containing 5% CO2.
The cells were prepared for the binding studies by trypsinizing them (0.05% solution of trypsin) at room temperature for 3-5 minutes. After that, the cells were centrifuged at 250 g for 10 minutes and treated with lysis buffer (5 mM Tris-HCl, 10% glycerol, pH 7.4) at 4° C. for 30 minutes. After centrifuging at 250 g for 10 minutes, the residue was stored at −20° C. until used.
Low affinity state dopamine D2 receptor using ^125I-spiperone (81 TBq/mmol, Du Pont de Nemours, Dreieich)
The test mixtures (1 ml) consisted of 1×10^5 cells in incubation buffer (50 mM Tris, 120 mM NaCl, 5 mM KCl, 2 mM MgCl2 and 2 mM CaCl2, pH 7.4 with HCl) and […] ^125I-spiperone (total binding) or additionally 1 μM haloperidol (nonspecific binding) or test substance.
After the test mixtures had been incubated at 25° C. for 60 minutes, they were filtered through GM/B glass filters (Whatman, England) on a Skatron cell harvester (from Zinsser, Frankfurt), and the filters were washed with ice-cold 50 mM Tris-HCl buffer, pH 7.4. The radioactivity which had collected on the filters was quantified using a Packard 2200 CA liquid scintillation counter.
The results were evaluated as described in a).
The Ki values were determined by way of nonlinear regression analysis using the LIGAND program or by converting the IC50 values using the Cheng and Prusoff formula.

| Compound | melting point [°C] | Ki [1] [nM] | Selectivity [2] |
| --- | --- | --- | --- |
| Cl.Cl.Cn1c(SCCCN2CCc3ccccc3C2)nnc1-c1cccnc1 | 87 to 89 | – | – |
| COC(=O)c1ccc2c(c1)CN(CCCSc1nnc(-c3ccccc3)n1C)CC2.O=C(O)C(=O)O | 160 to 163 | – | – |
| Cl.Cn1c(CCCCN2CCc3ccc(C#N)cc3C2)nnc1-c1ccccc1 | 175 | – | – |
| Cl.Cn1c(SCCCN2CCc3cc(C(F)(F)F)ccc3C2)nnc1-c1ccsc1 | 184 to 185 | – | – |
| CCN(CC)Cc1ccc2c(c1)CN(CCCSc1nnc(-c3ccccc3)n1C)CC2.Cl.Cl | 75 | – | – |
| Cl.Cn1c(SCCCN2CCc3ccc(C(F)(F)F)cc3C2)nnc1-c1ccccc1 | 205 to 207 | – | – |
| CCN(CC)CCOc1cccc2c1CCN(CCCSc1nnc(-c3ccccc3)n1C)C2.Cl.Cl | 110 to 112 | – | – |
| C=C(CSc1nnc(-c2ccccc2)n1C)CN1CCc2ccc([N+](=O)[O-])cc2C1.Cl | 146 to 150 | – | – |
| Cn1c(SCCCN2CCc3ccc(S(=O)(=O)NCc4ccccc4)cc3C2)nnc1-c1cccnc1 (as salt: HCl) [Example 10, N-Benzyl-2-{3-[(4-methyl-5-pyridin-3-yl-4H-1,2,4-triazol-3-yl)-sulfanyl]propyl}-1,2,3,4-tetrahydroisoquinoline-7-sulfonamide] | 81 to 84 | – | – |
| Cn1c(SCCCN2CCc3ccc(NS(C)(=O)=O)cc3C2)nnc1-c1ccccc1 (as salt: HCl) [Example 84, N-[2-(3-{[4-Methyl-5-phenyl-4H-1,2,4-triazol-3-yl]sulfanyl}-propyl)-1,2,3,4-tetrahydroisoquinolin-7-yl]methansulfonamide] | 90 | – | – |
| COc1ccc2c(c1)CCN(CCCSc1nnc(-c3ccc[nH]3)n1C)C2 [Example 2, 6-Methoxy-2-{3-[(4-methyl-5-pyrrol-2-yl-4H-1,2,4-triazol-3-yl)-sulfanyl]propyl}-1,2,3,4-tetrahydroisoquinoline] | 179 to 181 | – | – |
| COc1ccc2c(c1)CCN(CCCSc1nnc(-c3ccccc3)n1C)C2 [Example 3, 2-{3-[(4-Methyl-5-phenyl-4H-1,2,4-triazol-3-yl)sulfanyl]propyl}-6-methoxy-1,2,3,4-tetrahydroisoquinoline] | – | 9.55 | 78 |
| Cn1c(SCCCN2CCc3ccc(S(=O)(=O)N4CCCCC4)cc3C2)nnc1-c1ccccc1 [Example 4, 2-{3-[(4-Methyl-5-phenyl-4H-1,2,4-triazol-3-yl)sulfanyl]propyl}-7-(piperidin-1-ylsulfonyl)-1,2,3,4-tetrahydroisoquinoline] | 105 to 108 | 11 | 67 |
| Cn1c(SCCCN2CCc3ccc(C#N)cc3C2)nnc1-c1ccccc1 [Example 7, 2-{3-[(4-Methyl-5-phenyl-4H-1,2,4-triazol-3-yl)sulfanyl]propyl}-1,2,3,4-tetrahydroisoquinoline-7-carbonitrile] | 116 to 118 | 4.27 | 81 |
| Cc1ncsc1-c1nnc(SCCCN2CCc3ccc(S(=O)(=O)NCc4ccccc4)cc3C2)n1C [Example 9, N-Benzyl-2-(3-{[4-methyl-5-(4-methyl-1,3-thiazol-5-yl)-4H-1,2,4-triazol-3-yl]sulfanyl}propyl)-1,2,3,4-tetrahydroisoquinoline-7-sulfonamide] | 67 to 70 | – | – |
| COc1cccc2c1CCN(CCCSc1nnc(-c3ccccc3)n1C)C2 [Example 11, 5-Methoxy-2-{3-[(4-methyl-5-phenyl-4H-1,2,4-triazol-3-yl)-sulfanyl]propyl}-1,2,3,4-tetrahydroisoquinoline] | 73 to 75 | – | – |
| Cn1c(SCCCN2CCc3ccc(S(=O)(=O)Nc4ccccc4)cc3C2)nnc1-c1cccnc1 [Example 25, 2-{3-[(4-Methyl-5-pyridin-3-yl-4H-1,2,4-triazol-3-yl)sulfanyl]-propyl}-N-phenyl-1,2,3,4-tetrahydroisoquinoline-7-sulfonamide] | 58 to 61 | – | – |
| Cc1ncsc1-c1nnc(SCCCN2CCc3ccc(S(=O)(=O)Nc4ccccc4)cc3C2)n1C [Example 26, 2-(3-{[4-Methyl-5-(4-methyl-1,3-thiazol-5-yl)-4H-1,2,4-triazol-3-yl]sulfanyl}propyl)-N-phenyl-1,2,3,4-tetrahydroisoquinoline-7-sulfonamide] | 77 to 81 | – | – |
| Cn1c(SCCCN2CCc3cc(Cl)c(Cl)cc3C2)nnc1-c1ccccc1 [Example 28, 6,7-Dichloro-2-{3-[(4-methyl-5-phenyl-4H-1,2,4-triazol-3-yl)-sulfanyl]propyl}-1,2,3,4-tetrahydroisoquinoline] | 138 to 139 | – | – |
| Cn1cccc1-c1nnc(SCCCN2CCc3ccc(S(=O)(=O)N4CCCCC4)cc3C2)n1C [Example 35, 2-(3-{[4-Methyl-5-(1-methyl-1H-pyrrol-2-yl)-4H-1,2,4-triazol-3-yl]sulfanyl}propyl)-7-(piperidin-1-ylsulfonyl)-1,2,3,4-tetrahydroisoquinoline] | 96 to 100 | – | – |
| Cn1c(SCCCN2CCc3cc(Cl)ccc3C2)nnc1-c1ccsc1 [Example 39, 6-Chloro-2-{3-[(4-methyl-5-thien-3-yl-4H-1,2,4-triazol-3-yl)-sulfanyl]propyl}-1,2,3,4-tetrahydroisoquinoline] | 99 to 100 | – | – |
| Cn1c(SCCCN2CCc3ccc(S(=O)(=O)N4CCCC(C)(C)C4)cc3C2)nnc1-c1ccccc1 [Example 49, 7-[(3,3-Dimethylpiperidin-1-yl)sulfonyl]-2-{3-[(4-methyl-5-phenyl-4H-1,2,4-triazol-3-yl)sulfanyl]propyl}-1,2,3,4-tetrahydroisoquinoline] | 75 to 76 | – | – |
